Measurements reported in patent publication US8252810B2, “Bicycloamine derivatives” (Eisai R&D Management Co., Ltd., priority 2008, dated 2012).
Where a name gives a salt, the structure may show the parent alone.

What was measured:
[1] = test system: sodium channels in cultured rat hippocampus; conditions: Patent document 1, Example 129; cited from earlier work
ectopic firing = conditions: as described in Patent document 1, Example 129; cited from earlier work
human Nav1.8 = molecular target: T1, human Nav1.8 (Homo sapiens, UniProt Q9Y5Y9); test: Pharmacological effects on TTX-resistant Na channels in cells expressing human Nav1.8 gene (membrane potential dye, deltamethrin stimulation); format: cell-based
T1 construct: expressed in transfected cells
T1 sequence (Q9Y5Y9 whole entry): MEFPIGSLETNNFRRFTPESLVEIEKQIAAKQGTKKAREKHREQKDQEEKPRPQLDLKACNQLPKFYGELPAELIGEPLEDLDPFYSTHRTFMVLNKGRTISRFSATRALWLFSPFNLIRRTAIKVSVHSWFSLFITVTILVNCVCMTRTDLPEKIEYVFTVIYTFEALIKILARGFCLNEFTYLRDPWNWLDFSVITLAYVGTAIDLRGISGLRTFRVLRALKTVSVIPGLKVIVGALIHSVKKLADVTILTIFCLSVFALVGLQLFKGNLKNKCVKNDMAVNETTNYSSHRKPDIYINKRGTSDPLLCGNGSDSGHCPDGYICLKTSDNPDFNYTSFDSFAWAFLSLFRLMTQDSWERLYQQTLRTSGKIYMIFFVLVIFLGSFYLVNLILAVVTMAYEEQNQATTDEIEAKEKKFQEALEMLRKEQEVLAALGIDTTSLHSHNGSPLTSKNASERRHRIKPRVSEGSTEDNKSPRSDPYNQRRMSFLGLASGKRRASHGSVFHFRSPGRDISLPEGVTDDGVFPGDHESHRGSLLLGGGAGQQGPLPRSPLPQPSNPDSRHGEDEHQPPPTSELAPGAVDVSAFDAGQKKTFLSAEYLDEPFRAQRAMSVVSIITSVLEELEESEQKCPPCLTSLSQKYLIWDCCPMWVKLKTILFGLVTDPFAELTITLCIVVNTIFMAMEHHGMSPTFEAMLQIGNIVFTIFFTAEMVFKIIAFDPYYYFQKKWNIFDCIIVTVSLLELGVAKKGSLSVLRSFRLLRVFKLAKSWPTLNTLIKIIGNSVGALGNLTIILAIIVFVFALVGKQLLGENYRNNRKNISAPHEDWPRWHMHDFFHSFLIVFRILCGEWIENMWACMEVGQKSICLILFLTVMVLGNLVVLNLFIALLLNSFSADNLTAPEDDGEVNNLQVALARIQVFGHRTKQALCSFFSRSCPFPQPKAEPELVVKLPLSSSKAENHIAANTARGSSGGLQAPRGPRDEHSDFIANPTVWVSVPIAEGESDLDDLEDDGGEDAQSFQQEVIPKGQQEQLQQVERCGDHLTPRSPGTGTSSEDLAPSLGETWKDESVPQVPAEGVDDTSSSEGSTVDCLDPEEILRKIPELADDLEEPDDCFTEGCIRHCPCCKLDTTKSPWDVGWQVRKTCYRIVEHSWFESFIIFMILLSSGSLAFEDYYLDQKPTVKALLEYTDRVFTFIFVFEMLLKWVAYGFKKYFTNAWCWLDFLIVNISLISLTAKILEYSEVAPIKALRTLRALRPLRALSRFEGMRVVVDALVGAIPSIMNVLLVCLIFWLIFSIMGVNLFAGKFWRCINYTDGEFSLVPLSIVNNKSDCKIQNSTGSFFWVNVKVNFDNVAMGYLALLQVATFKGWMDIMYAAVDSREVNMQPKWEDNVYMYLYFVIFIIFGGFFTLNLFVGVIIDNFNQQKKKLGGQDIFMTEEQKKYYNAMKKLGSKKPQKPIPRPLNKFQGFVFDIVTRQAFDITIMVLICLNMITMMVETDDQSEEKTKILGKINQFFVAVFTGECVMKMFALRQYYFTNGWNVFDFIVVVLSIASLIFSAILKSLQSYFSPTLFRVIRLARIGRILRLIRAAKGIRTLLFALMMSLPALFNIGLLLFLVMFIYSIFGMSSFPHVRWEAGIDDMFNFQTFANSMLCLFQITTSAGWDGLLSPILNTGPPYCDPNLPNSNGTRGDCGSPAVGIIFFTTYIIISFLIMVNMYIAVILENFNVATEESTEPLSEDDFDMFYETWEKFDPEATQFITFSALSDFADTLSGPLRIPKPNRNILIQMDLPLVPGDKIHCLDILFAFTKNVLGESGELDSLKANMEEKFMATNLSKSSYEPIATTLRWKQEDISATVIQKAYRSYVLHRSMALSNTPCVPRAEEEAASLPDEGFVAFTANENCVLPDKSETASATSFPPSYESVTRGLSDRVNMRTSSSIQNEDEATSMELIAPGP
Description: Pharmacological Effects on TTX-Resistant Na Channels in Cells Expressing Human Nav1.8 Gene
A cell line expressing human Nav1.8 gene was used to evaluate the pharmacological effects of compounds of the invention.
. A membrane potential-sensitive dye containing TTX (final concentration: 0.25 μM) was added to cells expressing human Nav1.8, prior to incubation at 37° C. for 30-60 minutes. • 2. The test compound was added to the cells, and the mixture was stationed for 15-30 minutes at room temperature while shielded from light. • 3. Deltamethrin (final concentration: 50 μM), a Nav1.8 channel stimulant, was added, and the change in fluorescence intensity due to increased membrane potential was measured. Pharmacological Evaluation
The Nav1.8 channel inhibition of the test compound was determined by the following equation. […] Test Results

## O=c1[nH]cccc1CN1CC2CCCC(C1)C2/C=C/c1ccccc1F (stereo not shown)
[1]
  inhibitory activity against sodium channels: has an inhibitory activity
Ectopic firing
  inhibitory activity against ectopic firing: inadequate

## CCn1c(C)nc(=O)n(C[C@H](O)CN2[C@@H]3CC[C@H]2C[C@@H](OCc2ccccc2CF)C3)c1=O [Example 66, (Endo)-1-ethyl-3-{(R)-3-[3-(2-fluoromethylbenzyloxy)-8-azabicyclo[3.2.1]oct-8-yl]-2-hydroxypropyl}-6-methyl-1H-[1,3,5]triazine-2,4-dione oxalate]
Human Nav1.8
  IC50: 5.4 µM

## CNCCCN1c2ccccc2CCc2ccccc21 [desipramine]
Human Nav1.8; 30 μM desipramine, reference for complete inhibition under deltamethrin stimulation
  Nav1.8 channel inhibition: completely inhibits
